According to patent US4587254A, “1,3,4-thiadiazole derivatives, process for the production thereof and use thereof as antiulcer agent” (Wakamoto Pharmaceutical Co., Ltd., priority 1983, dated 1986):
Counter-ions that a name gives are not always drawn.

Columns and labels:
[1] = system: secretion of acid in the stomach; test: Inhibition of the secretion of acid in the stomach (pylorus-ligated rats); type: in vivo, rats (Donryu male); conditions: duodenum, 6 h; for Acidity / Gastric juice secreted / Inhibition rate (acidity) / Inhibition rate (amount of acid discharged) / Inhibition rate (gastric juice secreted) / Inhibition rate (pepsin activity) / Pepsin activity / Amount of acid discharged: five rats
Experimental: The pylorus was ligated. Immediately thereafter, a test sample was placed in the duodenum and the abdomen was closed. Six hour after the administration of the test sample, the stomach was taken out under […] anesthesia and the gastric juice was taken out. The gastric juice was centrifuged. The quantity, acidity and pepsin activity of the supernatant liquid were determined. […] The amount of the acid discharged per hour was calculated by multiplying the acidity by the quantity of the juice. Pepsin activity was determined by Anson's method [J. gen. […] The results of the tests of TAS are the averages of the group consisting of ten rats.

[2] = Antiulcer effects (pylorus-ligated rats); type: in vivo, rats (Donryu); conditions: for Inhibition rate (ulcer): duodenum, 8 h
Experimental: Donryu rats weighing 200 to 230 g were used. Each group consisted of 6 rats. After fasting for 72 h, the rats were subjected to an abdominal operation under etheral anesthesia. The pylorus was ligated. Immediately thereafter, a given dose of a test sample was placed in the duodenum. Thereafter, neither food nor water was given. After 8 h, the stomach was taken out under etheral anesthesia and immersed in 1% formalin solution for 10 min. The stomach was cut along the greater curvature. The area of ulcer formed in the forestomach was determined by an anatomico-microscopicobservation (magnification: ×10). The rate of control of the ulcer (%) was calculated as compared with a control.

Question: With `Nc1nnc(NCCCOc2cccc(CN3CCCCC3)c2)s1` [TAS, 2-N-{3-[3-(1-piperidinomethyl)phenoxy]propyl}-amino-5-amino-1,3,4-thiadiazole hydrochloride] as the compound, how does the “Rate of control of the amount of acid discharged” value ([1]; Table 5, 6.7 mg/kg, ten rats) read?
Answer: Its value is 85.7%.

Question: And the “Rate of control of the amount of pepsin discharged” value (“Rate … of pepsin discharged” for short) ([1]; Table 5, 6.7 mg/kg, ten rats)?
Answer: Its value is 13.6%.

Question: And the “Rate of inhibition of acidity” value ([1]; Table 5, 6.7 mg/kg, ten rats)?
Answer: Its value is 67.4%.

Question: What about the “Rate of inhibition of the secretion of gastric juice” value ([1]; Table 5, 6.7 mg/kg, ten rats) of the same compound?
Answer: Its value is 57.7%.

Question: And the “Rate of control of the amount of acid discharged” value ([1]; Table 5, 20.0 mg/kg, ten rats)?
Answer: Its value is 91.4%.

Question: What about the “Rate … of pepsin discharged” value ([1]; Table 5, 20.0 mg/kg, ten rats) of the same compound?
Answer: Its value is 25.8%.

Question: And the “Rate of inhibition of acidity” value ([1]; Table 5, 20.0 mg/kg, ten rats)?
Answer: Its value is 74.0%.

Question: And the “Rate of inhibition of the secretion of gastric juice” value ([1]; Table 5, 20.0 mg/kg, ten rats)?
Answer: The value was 65.4%.

Question: And the “Rate of control of the amount of acid discharged” value ([1]; Table 5, 60.0 mg/kg, ten rats)?
Answer: Its value is 100%.

Question: What about the “Rate … of pepsin discharged” value ([1]; Table 5, 60.0 mg/kg, ten rats) of the same compound?
Answer: The value was 86.4%.

Question: What about the “Rate of inhibition of acidity” value ([1]; Table 5, 60.0 mg/kg, ten rats) of the same compound?
Answer: The value was 100%.

Question: What about the “Rate of inhibition of the secretion of gastric juice” value ([1]; Table 5, 60.0 mg/kg, ten rats) of the same compound?
Answer: The value was 82.7%.

Question: And the “Rate of control of the amount of acid discharged” value ([1]; Table 6, 0.7 mg/kg)?
Answer: The value was 40.2%.

Question: And the “Rate … of pepsin discharged” value ([1]; Table 6, 0.7 mg/kg)?
Answer: Its value is -1.3%.

Question: And the “Rate of inhibition of acidity” value ([1]; Table 6, 0.7 mg/kg)?
Answer: The value was 22.4%.

Question: What about the “Rate of inhibition of the secretion of gastric juice” value ([1]; Table 6, 0.7 mg/kg) of the same compound?
Answer: Its value is 23.51%.

Question: And the “Rate of control of the amount of acid discharged” value ([1]; Table 6, 6.7 mg/kg)?
Answer: The value was 81.5%.

Question: What about the “Rate … of pepsin discharged” value ([1]; Table 6, 6.7 mg/kg) of the same compound?
Answer: The value was 15.2%.

Question: What about the “Rate of inhibition of acidity” value ([1]; Table 6, 6.7 mg/kg) of the same compound?
Answer: Its value is 65.7%.

Question: And the “Rate of inhibition of the secretion of gastric juice” value ([1]; Table 6, 6.7 mg/kg)?
Answer: The value was 52.9%.

Question: What about the “Rate of control of the amount of acid discharged” value ([1]; Table 6, 20.0 mg/kg) of the same compound?
Answer: The value was 91.5%.

Question: What about the “Rate … of pepsin discharged” value ([1]; Table 6, 20.0 mg/kg) of the same compound?
Answer: The value was 30.4%.

Question: What about the “Rate of inhibition of acidity” value ([1]; Table 6, 20.0 mg/kg) of the same compound?
Answer: The value was 75.0%.

Question: And the “Rate of inhibition of the secretion of gastric juice” value ([1]; Table 6, 20.0 mg/kg)?
Answer: The value was 66.7%.

Question: What about the “Inhibition rate (ulcer)” value ([2]; 6.3 mg/kg) of the same compound?
Answer: The value was 60.0%.

Question: What about the “Inhibition rate (ulcer)” value ([2]; 12.5 mg/kg) of the same compound?
Answer: The value was 90.0%.

Question: And the “Inhibition rate (ulcer)” value ([2]; 25.0 mg/kg)?
Answer: Its value is 95.0%.

Question: What about the “Inhibition rate (ulcer)” value ([2]; 50.0 mg/kg) of the same compound?
Answer: Its value is 100%.

Question: What about the “antiulcer effects compared with 200 mg/kg of cimetidine or ranitidine” value ([2]; 12.5 to 50 mg/kg) of the same compound?
Answer: The value was “far superior”.

Question: With `CNc1nnc(NCCCOc2cccc(CN3CCCCC3)c2)s1` [H2 --33, 2-N-{3-[3-(1-piperidinomethyl)phenoxy]-propyl}amino-5-methylamino-1,3,4-thiadiazole] as the compound, how does the Acidity ([1]; 6.7 mg/kg) read?
Answer: The Acidity was 70.0 meq H^+ /l.

Question: What about the Gastric juice secreted ([1]; 6.7 mg/kg) of the same compound?
Answer: The Gastric juice secreted was 4.8 mL.

Question: And the “Inhibition rate (acidity)” value ([1]; 6.7 mg/kg)?
Answer: The value was 14.0%.

Question: What about the “Inhibition rate (amount of acid discharged)” value ([1]; 6.7 mg/kg) of the same compound?
Answer: Its value is 35.0%.

Question: What about the “Inhibition rate (gastric juice secreted)” value ([1]; 6.7 mg/kg) of the same compound?
Answer: Its value is 17.0%.

Question: And the “Inhibition rate (pepsin activity)” value ([1]; 6.7 mg/kg)?
Answer: The value was -3.2%.

Question: And the Pepsin activity ([1]; 6.7 mg/kg)?
Answer: The Pepsin activity was 6.4 mg/mL.

Question: And the Acidity ([1]; 20.0 mg/kg)?
Answer: The Acidity was 52.0 meq H^+ /l.

Question: And the Gastric juice secreted ([1]; 20.0 mg/kg)?
Answer: The Gastric juice secreted was 2.5 mL.

Question: What about the “Inhibition rate (acidity)” value ([1]; 20.0 mg/kg) of the same compound?
Answer: Its value is 36.0%.

Question: And the “Inhibition rate (amount of acid discharged)” value ([1]; 20.0 mg/kg)?
Answer: The value was 70.0%.

Question: And the “Inhibition rate (gastric juice secreted)” value ([1]; 20.0 mg/kg)?
Answer: The value was 57.0%.

Question: And the “Inhibition rate (pepsin activity)” value ([1]; 20.0 mg/kg)?
Answer: Its value is 0%.

Question: What about the Pepsin activity ([1]; 20.0 mg/kg) of the same compound?
Answer: Its Pepsin activity is 6.2 mg/mL.

Question: What about the Acidity ([1]; 60.0 mg/kg) of the same compound?
Answer: The Acidity was 24.0 meq H^+ /l.

Question: What about the Gastric juice secreted ([1]; 60.0 mg/kg) of the same compound?
Answer: Its Gastric juice secreted is 2.9 mL.

Question: And the “Inhibition rate (acidity)” value ([1]; 60.0 mg/kg)?
Answer: The value was 70.0%.

Question: And the “Inhibition rate (amount of acid discharged)” value ([1]; 60.0 mg/kg)?
Answer: Its value is 88.0%.

Question: What about the “Inhibition rate (gastric juice secreted)” value ([1]; 60.0 mg/kg) of the same compound?
Answer: The value was 50.0%.

Question: What about the “Inhibition rate (pepsin activity)” value ([1]; 60.0 mg/kg) of the same compound?
Answer: The value was 21.0%.

Question: What about the Pepsin activity ([1]; 60.0 mg/kg) of the same compound?
Answer: The Pepsin activity was 4.9 mg/mL.

Question: What about the “Amount of acid discharged” value ([1]; Table 3, 6.7 mg/kg) of the same compound?
Answer: The value was 54.0 μEq/H.

Question: And the “Amount of acid discharged” value ([1]; Table 3, 20.0 mg/kg)?
Answer: The value was 25.0 μEq/H.

Question: And the “Amount of acid discharged” value ([1]; Table 3, 60.0 mg/kg)?
Answer: Its value is 10.0 μEq/H.

Question: For `Sc1nnc(NCCCOc2cccc(CN3CCCCC3)c2)s1` [H2 --37, 2-N-{3-[3-(1-piperidinomethyl)phenoxy]propyl}amino-5-mercapto-1,3,4-thiadiazole], which Acidity ([1]; 6.7 mg/kg) is on record?
Answer: Its Acidity is 85.0 meq H^+ /l.

Question: What about the Gastric juice secreted ([1]; 6.7 mg/kg) of the same compound?
Answer: Its Gastric juice secreted is 4.6 mL.

Question: What about the “Inhibition rate (acidity)” value ([1]; 6.7 mg/kg) of the same compound?
Answer: The value was 4.5%.

Question: What about the “Inhibition rate (amount of acid discharged)” value ([1]; 6.7 mg/kg) of the same compound?
Answer: The value was 22.0%.

Question: What about the “Inhibition rate (gastric juice secreted)” value ([1]; 6.7 mg/kg) of the same compound?
Answer: The value was 27.0%.

Question: And the “Inhibition rate (pepsin activity)” value ([1]; 6.7 mg/kg)?
Answer: The value was -7.3%.

Question: What about the Pepsin activity ([1]; 6.7 mg/kg) of the same compound?
Answer: Its Pepsin activity is 5.9 mg/mL.

Question: And the Acidity ([1]; 20.0 mg/kg)?
Answer: The Acidity was 81.0 meq H^+ /l.

Question: What about the Gastric juice secreted ([1]; 20.0 mg/kg) of the same compound?
Answer: The Gastric juice secreted was 5.2 mL.

Question: What about the “Inhibition rate (acidity)” value ([1]; 20.0 mg/kg) of the same compound?
Answer: Its value is 9.0%.

Question: What about the “Inhibition rate (amount of acid discharged)” value ([1]; 20.0 mg/kg) of the same compound?
Answer: The value was 21.0%.

Question: What about the “Inhibition rate (gastric juice secreted)” value ([1]; 20.0 mg/kg) of the same compound?
Answer: The value was 18.0%.

Question: And the “Inhibition rate (pepsin activity)” value ([1]; 20.0 mg/kg)?
Answer: The value was -7.3%.

Question: What about the Pepsin activity ([1]; 20.0 mg/kg) of the same compound?
Answer: Its Pepsin activity is 5.9 mg/mL.

Question: And the Acidity ([1]; 60.0 mg/kg)?
Answer: Its Acidity is 67.0 meq H^+ /l.

Question: What about the Gastric juice secreted ([1]; 60.0 mg/kg) of the same compound?
Answer: The Gastric juice secreted was 3.6 mL.

Question: And the “Inhibition rate (acidity)” value ([1]; 60.0 mg/kg)?
Answer: The value was 24.0%.

Question: What about the “Inhibition rate (amount of acid discharged)” value ([1]; 60.0 mg/kg) of the same compound?
Answer: Its value is 57.0%.

Question: What about the “Inhibition rate (gastric juice secreted)” value ([1]; 60.0 mg/kg) of the same compound?
Answer: Its value is 43.0%.

Question: What about the “Inhibition rate (pepsin activity)” value ([1]; 60.0 mg/kg) of the same compound?
Answer: Its value is 1.8%.

Question: And the Pepsin activity ([1]; 60.0 mg/kg)?
Answer: The Pepsin activity was 5.4 mg/mL.

Question: What about the “Amount of acid discharged” value ([1]; Table 4, 6.7 mg/kg) of the same compound?
Answer: Its value is 67.0 μEq/h.

Question: And the “Amount of acid discharged” value ([1]; Table 4, 20.0 mg/kg)?
Answer: The value was 68.0 μEq/h.

Question: What about the “Amount of acid discharged” value ([1]; Table 4, 60.0 mg/kg) of the same compound?
Answer: Its value is 37.0 μEq/h.
